In ChEMBL document CHEMBL3885881, “DrugMatrix”:

Species on record: Rattus norvegicus
Test: DrugMatrix - Regimen: Daily Repeat
Assay type: toxicity, organism-based, Sprague-Dawley
Set-up: regimen Daily Repeat, gender Male, age 6-8 weeks
Details: in vivo, po, route oral GAVAGE, vehicle 100 % WATER; for ABSOLUTE BASOPHIL / ABSOLUTE EOSINOPHIL / ABSOLUTE LYMPHOCYTE / ABSOLUTE MONOCYTE / ABSOLUTE SEGMENTED NEUTROPHIL / BASOPHIL / EOSINOPHIL / ERYTHROCYTE COUNT / HEMATOCRIT / HEMOGLOBIN / LEUKOCYTE COUNT / LYMPHOCYTE / MEAN CORPUSCULAR HEMOGLOBIN / MEAN CORPUSCULAR HEMOGLOBIN CONCENTRATION / MEAN CORPUSCULAR VOLUME / MONOCYTE / NEUTROPHIL / NUCLEATED RED BLOOD CELLS / PLATELET COUNT: tissue Blood; for ALANINE AMINOTRANSFERASE / ALBUMIN / ALKALINE PHOSPHATASE / ASPARTATE AMINOTRANSFERASE / BLOOD UREA NITROGEN / CARBON DIOXIDE / CHLORIDE / CHOLESTEROL / CREATINE PHOSPHOKINASE / CREATININE / GLUCOSE / LACTATE DEHYDROGENASE / LIPASE / PHOSPHORUS / POTASSIUM / SODIUM / TOTAL BILIRUBIN / TOTAL PROTEIN / URIC ACID: tissue Plasma
[1] = 10 mg/kg, 120 h, dose level Low, time 5 day
[2] = 900 mg/kg, 72 h, dose level High, time 3 day
[3] = 900 mg/kg, 120 h, dose level High, time 5 day

With `CC(C)(C)NC[C@H](O)COc1nsnc1N1CCOCC1` [TIMOLOL] the “ABSOLUTE BASOPHIL” value [1] was 0 CELLS/uL, the “ABSOLUTE EOSINOPHIL” value [1] was 115.33 CELLS/uL and the “ABSOLUTE LYMPHOCYTE” value [1] was 10711.67 CELLS/uL. For the same compound, the “ABSOLUTE MONOCYTE” value [1] was 97.67 CELLS/uL, the “ABSOLUTE SEGMENTED NEUTROPHIL” value [1] was 1075.33 CELLS/uL and the BASOPHIL [1] was 0%. For the same compound, the EOSINOPHIL [1] was 0.67%, the “ERYTHROCYTE COUNT” value [1] was 5.23 x10E6/uL and the HEMATOCRIT [1] was 33.1%. The HEMOGLOBIN [1] was 12.83 G/DL, the “LEUKOCYTE COUNT” value [1] was 12 x10E3/uL and the LYMPHOCYTE [1] was 90%. For the same compound, the “MEAN CORPUSCULAR HEMOGLOBIN” value [1] was 24.53 pg, the “MEAN CORPUSCULAR HEMOGLOBIN CONCENTRATION” value [1] was 38.77 G/DL and the “MEAN CORPUSCULAR VOLUME” value [1] was 63.27 fL. The MONOCYTE [1] was 0.67%, the NEUTROPHIL [1] was 8.67% and the “NUCLEATED RED BLOOD CELLS” value [1] was 0 /100WBC. The “PLATELET COUNT” value [1] was 1050 x10E3/uL, the “ALANINE AMINOTRANSFERASE” value [1] was 51 u/L and the ALBUMIN [1] was 4.03 G/DL. The “ALKALINE PHOSPHATASE” value [1] was 411.33 u/L, the “ASPARTATE AMINOTRANSFERASE” value [1] was 79.33 u/L and the “BLOOD UREA NITROGEN” value [1] was 15 mg/dL. For the same compound, the “CARBON DIOXIDE” value [1] was 29 mmol/L, the CHLORIDE [1] was 101.33 MEQ/L and the CHOLESTEROL [1] was 71 mg/dL. For the same compound, the “CREATINE PHOSPHOKINASE” value [1] was 333 u/L, the CREATININE [1] was 0.16 mg/dL and the GLUCOSE [1] was 180.33 mg/dL. For the same compound, the “LACTATE DEHYDROGENASE” value [1] was 129.33 u/L, the LIPASE [1] was 9 u/L and the PHOSPHORUS [1] was 11.93 mg/dL. For the same compound, the POTASSIUM [1] was 5.38 MEQ/L, the SODIUM [1] was 144.33 MEQ/L and the “TOTAL BILIRUBIN” value [1] was 0.13 mg/dL. For the same compound, the “TOTAL PROTEIN” value [1] was 6.1 G/DL, the “URIC ACID” value [1] was 0.73 mg/dL and the “ABSOLUTE BASOPHIL” value [2] was 0 CELLS/uL. The “ABSOLUTE EOSINOPHIL” value [2] was 0 CELLS/uL, the “ABSOLUTE LYMPHOCYTE” value [2] was 11176.67 CELLS/uL and the “ABSOLUTE MONOCYTE” value [2] was 84.33 CELLS/uL. The “ABSOLUTE SEGMENTED NEUTROPHIL” value [2] was 872.33 CELLS/uL, the BASOPHIL [2] was 0% and the EOSINOPHIL [2] was 0%. The “ERYTHROCYTE COUNT” value [2] was 5.11 x10E6/uL, the HEMATOCRIT [2] was 32.53% and the HEMOGLOBIN [2] was 12.93 G/DL. The “LEUKOCYTE COUNT” value [2] was 12.13 x10E3/uL, the LYMPHOCYTE [2] was 92% and the “MEAN CORPUSCULAR HEMOGLOBIN” value [2] was 25.27 pg. For the same compound, the “MEAN CORPUSCULAR HEMOGLOBIN CONCENTRATION” value [2] was 39.77 G/DL, the “MEAN CORPUSCULAR VOLUME” value [2] was 63.67 fL and the MONOCYTE [2] was 0.67%. For the same compound, the NEUTROPHIL [2] was 7.33%, the “NUCLEATED RED BLOOD CELLS” value [2] was 0.33 /100WBC and the “PLATELET COUNT” value [2] was 1179.33 x10E3/uL. The “ALANINE AMINOTRANSFERASE” value [2] was 48 u/L, the ALBUMIN [2] was 3.73 G/DL and the “ALKALINE PHOSPHATASE” value [2] was 389 u/L. For the same compound, the “ASPARTATE AMINOTRANSFERASE” value [2] was 98 u/L, the “BLOOD UREA NITROGEN” value [2] was 12.67 mg/dL and the “CARBON DIOXIDE” value [2] was 29.33 mmol/L. For the same compound, the CHLORIDE [2] was 101.67 MEQ/L, the CHOLESTEROL [2] was 77.33 mg/dL and the “CREATINE PHOSPHOKINASE” value [2] was 901.67 u/L. The CREATININE [2] was 0.28 mg/dL, the GLUCOSE [2] was 148.67 mg/dL and the “LACTATE DEHYDROGENASE” value [2] was 189.33 u/L. For the same compound, the LIPASE [2] was 11.33 u/L, the PHOSPHORUS [2] was 13.97 mg/dL and the POTASSIUM [2] was 7.3 MEQ/L. The SODIUM [2] was 143.43 MEQ/L, the “TOTAL BILIRUBIN” value [2] was 0.17 mg/dL and the “TOTAL PROTEIN” value [2] was 5.43 G/DL. The “URIC ACID” value [2] was 1.67 mg/dL, the “ABSOLUTE BASOPHIL” value [3] was 0 CELLS/uL and the “ABSOLUTE EOSINOPHIL” value [3] was 114.33 CELLS/uL. For the same compound, the “ABSOLUTE LYMPHOCYTE” value [3] was 9946 CELLS/uL, the “ABSOLUTE MONOCYTE” value [3] was 153 CELLS/uL and the “ABSOLUTE SEGMENTED NEUTROPHIL” value [3] was 1220 CELLS/uL. The BASOPHIL [3] was 0%, the EOSINOPHIL [3] was 1% and the “ERYTHROCYTE COUNT” value [3] was 5.75 x10E6/uL. For the same compound, the HEMATOCRIT [3] was 36.17%, the HEMOGLOBIN [3] was 13.83 G/DL and the “LEUKOCYTE COUNT” value [3] was 11.43 x10E3/uL. For the same compound, the LYMPHOCYTE [3] was 87%, the “MEAN CORPUSCULAR HEMOGLOBIN” value [3] was 24.07 pg and the “MEAN CORPUSCULAR HEMOGLOBIN CONCENTRATION” value [3] was 38.27 G/DL. The “MEAN CORPUSCULAR VOLUME” value [3] was 62.97 fL, the MONOCYTE [3] was 1.33% and the NEUTROPHIL [3] was 10.67%. For the same compound, the “NUCLEATED RED BLOOD CELLS” value [3] was 0 /100WBC, the “PLATELET COUNT” value [3] was 1330.33 x10E3/uL and the “ALANINE AMINOTRANSFERASE” value [3] was 48 u/L. The ALBUMIN [3] was 3.63 G/DL, the “ALKALINE PHOSPHATASE” value [3] was 402.67 u/L and the “ASPARTATE AMINOTRANSFERASE” value [3] was 107.33 u/L. The “BLOOD UREA NITROGEN” value [3] was 14.33 mg/dL, the “CARBON DIOXIDE” value [3] was 23.67 mmol/L and the CHLORIDE [3] was 103.67 MEQ/L. The CHOLESTEROL [3] was 78.67 mg/dL, the “CREATINE PHOSPHOKINASE” value [3] was 707.33 u/L and the CREATININE [3] was 0.14 mg/dL. The GLUCOSE [3] was 142 mg/dL, the “LACTATE DEHYDROGENASE” value [3] was 252.33 u/L and the LIPASE [3] was 10 u/L. The PHOSPHORUS [3] was 11.6 mg/dL, the POTASSIUM [3] was 6.41 MEQ/L and the SODIUM [3] was 144.37 MEQ/L. For the same compound, the “TOTAL BILIRUBIN” value [3] was 0.17 mg/dL, the “TOTAL PROTEIN” value [3] was 5.27 G/DL and the “URIC ACID” value [3] was 1.5 mg/dL.
